Assay results as given in ChEMBL document CHEMBL3994566 (Medchemcomm, 2016).
pKd: −log10 of the molar value.

How the values were obtained:
CCR5 = experiment: Selectivity index, ratio of CC50 for human TZM-bl cells to EC50 for CCR5 in human TZM-bl cells infected with CCR5-tropic HIV-1 Bal assessed as inhibition of viral entry; format: toxicity, cell-based; settings: read-out: Ratio CC50/EC50
[1] = Binding affinity to HIV1 integrase by surface plasma resonance method; set-up: species or system Human immunodeficiency virus
TZM = experiment: Cytotoxicity against human TZM-bl cells after 3 days by XTT assay; format: cell-based; settings: 72 h

| Compound | selectivity ratio (CCR5) | pKd [1] | Activity (TZM) |
| --- | --- | --- | --- |
| CC(=O)Oc1ccc(/C=C/C(=O)CCc2ccc(NC(=O)c3ccccc3)cc2)cc1OC(C)=O | < 5 |  |  |
| CC(=O)Oc1ccc(CCC(=O)CCc2ccc(NC(=O)c3ccc(C)cc3)cc2)cc1OC(C)=O | 9 |  |  |
| O=C(CCc1ccc(NC(=O)Cc2cccs2)cc1)CCc1ccc(O)c(O)c1 | 8 |  |  |
| CC(=O)Oc1ccc(/C=C/C(=O)CCc2ccc(NC(=O)C3CCCCC3)cc2)cc1OC(C)=O | 5 |  |  |
| CC(=O)Oc1ccc(CCC(=O)CCc2ccc(NC(=O)c3ccccc3)cc2)cc1OC(C)=O | 110 | 5.62 | Non-Toxic |
| CC(=O)Oc1ccc(/C=C/C(=O)CCc2ccc(NC(=O)Cc3cccs3)cc2)cc1OC(C)=O | < 1 |  |  |
| COc1ccc(C(=O)Nc2ccc(CCC(=O)/C=C/c3ccc(OC(C)=O)c(OC(C)=O)c3)cc2)cc1 | 12 |  |  |
| Cc1nnc(C(C)C)n1[C@@H]1C[C@H]2CC[C@@H](C1)N2CC[C@H](NC(=O)C1CCC(F)(F)CC1)c1ccccc1 [MARAVIROC] | > 1e+06 |  |  |
| O=C(CCc1ccc(NC(=O)c2ccccc2)cc1)CCc1ccc(O)c(O)c1 | 26 | 3.96 |  |
| O=C(/C=C/c1ccc(O)c(O)c1)CCc1ccc(NC(=O)c2ccc([N+](=O)[O-])cc2)cc1 | < 1 |  |  |
| CC(=O)Oc1ccc(/C=C/C(=O)CCc2ccc(NC(=O)c3ccc([N+](=O)[O-])cc3)cc2)cc1OC(C)=O | 5 |  |  |
| O=C(/C=C/c1ccc(O)c(O)c1)CCc1ccc(NC(=O)C2CCCCC2)cc1 | < 3 | 4.05 |  |
| COc1ccc(C(=O)Nc2ccc(CCC(=O)CCc3ccc(O)c(O)c3)cc2)cc1 | < 5 |  |  |
| CC(=O)Oc1ccc(CCC(=O)CCc2ccc(NC(=O)c3ccc([N+](=O)[O-])cc3)cc2)cc1OC(C)=O | 15 |  |  |
| CC(=O)Oc1ccc(CCC(=O)CCc2ccc(NC(=O)C3CCCCC3)cc2)cc1OC(C)=O | 14 |  |  |
| Cc1ccc(C(=O)Nc2ccc(CCC(=O)CCc3ccc(O)c(O)c3)cc2)cc1 | 5 |  |  |
| O=C(CCc1ccc(NC(=O)c2ccc([N+](=O)[O-])cc2)cc1)CCc1ccc(O)c(O)c1 | 6 |  |  |
| CC(=O)Oc1ccc(CCC(=O)CCc2ccc(NC(=O)Cc3cccs3)cc2)cc1OC(C)=O | 17 |  |  |
| CC(=O)Oc1ccc(/C=C/C(=O)CCc2ccc(NC(=O)c3ccc(C)cc3)cc2)cc1OC(C)=O | 2 |  |  |
| O=C(/C=C/c1ccc(O)c(O)c1)CCc1ccc(NC(=O)c2ccccc2)cc1 | < 1 | 3.79 |  |
| Cc1ccc(C(=O)Nc2ccc(CCC(=O)/C=C/c3ccc(O)c(O)c3)cc2)cc1 | < 1 |  |  |
| O=C(/C=C/c1ccc(O)c(O)c1)CCc1ccc(NC(=O)Cc2cccs2)cc1 | < 2 | 4.21 |  |
| COc1ccc(C(=O)Nc2ccc(CCC(=O)/C=C/c3ccc(O)c(O)c3)cc2)cc1 | 7 | 4.36 |  |
| COc1ccc(C(=O)Nc2ccc(CCC(=O)CCc3ccc(OC(C)=O)c(OC(C)=O)c3)cc2)cc1 | 21 |  |  |
| O=C(CCc1ccc(NC(=O)C2CCCCC2)cc1)CCc1ccc(O)c(O)c1 | 10 | 4.09 |  |
